Results taken from PMC11500415, “Chemical inhibition of stomatal differentiation by perturbation of the master-regulatory bHLH heterodimer via an ACT-Like domain” (Nature Communications, 2024).
Where “and” joins values, the source holds several entries; their conditions need not be identical. Identical values can stand only once. Entries after “also recorded” stand apart in the source; their conditions may differ.

Experiments:
[1] = target: T1, SCRM2-SPCH heterodimer (Arabidopsis thaliana, UniProt Q700C7); test: Ratiometric BiFC in N. benthamiana leaves; format: cell-based; settings: 100 µM
T1 construct: heterodimerization of SCRM with full-length SPCH, MUTE, or FAMA in the context of the plant cells; we performed rBiFC assays using full-length SCRM2; nYFP (N terminus of EYFP, 174 amino acids); cYFP (C terminus of EYFP, 64 amino acids); expressed in transfected cells; host or cells: Nicotiana benthamiana leaves (Agrobacterium infiltration)
Description: For ratiometric BiFC assays, the cDNAs of SPCH, MUTE, and FAMA were cloned into the 35S CaMV promoter-driven destination vector pSPYNE, which contains the N terminus of the EYFP protein (nYFP-174 amino acids), while the cDNA of SCRM and SCRM2 was inserted into pSPYCE, which contains the C terminus of the EYFP protein (cYFP-64 amino acids) (see Supplementary Table 5 for detailed information of the constructs). The constructs were then transformed into Agrobacterium tumefaciens strain GV3101. The Agrobacterium was resuspended in infiltration buffer (10 mM MgCl2, 10 mM 2-(N-morpholino)ethanesulfonic acid [pH 5.6], and 150 µM acetosyringone). Bacterial culture densities were adjusted to a final optical density (OD600) of 1.0, and the cell suspensions were incubated at room temperature for 4 hours prior to infiltration. Equal volumes of cultures carrying the corresponding complementary pair of BiFC constructs (YFPn and YFPc), along with CaMV35S::Histone H2B-mScarlet-I3 and the silencing suppressor plasmid p19 (a gift from Dr. Sir David Baulcombe) were mixed and then co-infiltrated into 4-week-old N. benthamiana leaves. The infiltrated N. benthamiana leaves were incubated at 25 °C for 2 days. Subsequently, leaf discs were cut out and cultured in mock or in liquid 1/2 MS media in mock (DMSO) or 100 µM Stomidazolone for 1 day. Confocal imaging of N. benthamiana leaves was performed using a Leica SP8 confocal microscope using a 20X objective lens (Leica Microsystems), simultaneously capturing YFP (excitation at 518 nm and emission at 530 nm) and mScarlet-I3 (excitation at 569 nm and emission at 600 nm) differential interference contrast channels.

[2] = tested on: Arabidopsis WT seedlings on solid MS media; test: Stomatal development bioassay on solid media; format: in vivo; settings: for MI (%) meristemoid index / SI (%) stomatal index: solid culture, cotyledon abaxial epidermis, individual seedlings
Procedure: Arabidopsis accession Columbia (Col-0) was used as wild-type. […] Their genotype and transcript reduction were confirmed. The presence of transgenes/mutant alleles were confirmed by genotyping. For liquid culture with Stomidazolone (AYSJ929, compound 3), the analogs (AYSJ1059 (compound 5) and AYSJ1061 (compound 6)), degraded compound lzx103 (compound 4), and SIM3* (compound 7), all compounds were dissolved in dimethyl sulfoxide (DMSO, Molecular biology grade, Fujifilm Wako, Japan 046-21981), Col-0 seeds were sown in 96-well plates (TL5003; True Line) containing 95 μL of 1/2 MS media containing 0.5% sucrose with rotary shaking at 140 rpm under continuous light at 22 °C. Five μL of compounds were dissolved in DMSO at 10 mM and diluted with liquid 1/2 MS media to 1 mM and added on 1-day-old seedlings (final concentration, 50 μM). Seedlings were incubated for 8 days, and at day 9 seedling abaxial cotyledons were observed through confocal microscopy. For liquid culture of scrm-D_S343 and scrm-D_S423, 1/2 MS liquid media without sucrose was used. For the solid culture, 0, 20, 50 or 100 μM Stomidazolone were solidified with low-melting agarose (5805S, PrimeGelTM Agarose LMT 1-20 K, TAKARA Bio). Briefly, 1/2 MS salt, 0.5% sucrose, and 0.8% low melting agarose were mixed in water and autoclaved. After cooling the medium at around 30 °C, Stomidazolone (500x, dissolved in DMSO) was added and poured into 90 mm petri dishes (Asnol Petri Dish JP φ90 x 15 mm, 3-1491-01, AS ONE). Col-0 seeds were sown on Stomidazolone-containing 1/2 MS agarose media and grown under continuous light for 9 days.
For quantitative analysis of the abaxial leaf epidermis, confocal images were taken on the days after germination as indicated in the Figure legends. Preparation of images was done as described previously[32],[70]. For counting epidermal cell types, stomatal density, stomatal precursor cells (meristemoids), total stomata-lineage cells (stomata and meristemoids) were calculated by counting cell types in an area of 0.4 mm^2 (0.63 mm × 0.63 mm) and plotted as per mm^2. A series of Z-stack confocal images was obtained to obtain images covering the epidermis and capturing GFP/YFP signal from the reporter lines. The area and the number of epidermal cells were quantified by using FIJI-ImageJ. Statistical analyses were performed using R ver. 4.0.2. Sample sizes (n) are indicated and defined in each legend. For the multiple sample comparison, 1-way ANOVA was performed followed by a post hoc Tukey HSD test. For the two-sample comparison, Student’s T-test was performed. Graphs were generated using R ggplot2 package. For all boxplots, each box represents IQR (interquartile range), in which top, middle line, and bottom indicating 75, 50, and 25 percentiles, respectively, and the bar representing maximum to minimal values. Each magenta dot represents jittered individual data point. The datapoints that go beyond the bar are outliers, which are indicated as black dots. If the data point is greater than Q3 + 1.5*IQR (above the third quartile is greater than 1.5 times of the interquartile range) or less than Q1 − 1.5*IQR, that data point is classified as outlier. The color of Boxplot graph was based on ColorBrewer.org. The value of n, the number of each experiment or samples, the means of error bars, and how statistical significance was defined are indicated in a relevant figure legend. See Source Data for quantitative data underlying each figure.

T1 sequence (Q700C7 whole entry, one chain of several): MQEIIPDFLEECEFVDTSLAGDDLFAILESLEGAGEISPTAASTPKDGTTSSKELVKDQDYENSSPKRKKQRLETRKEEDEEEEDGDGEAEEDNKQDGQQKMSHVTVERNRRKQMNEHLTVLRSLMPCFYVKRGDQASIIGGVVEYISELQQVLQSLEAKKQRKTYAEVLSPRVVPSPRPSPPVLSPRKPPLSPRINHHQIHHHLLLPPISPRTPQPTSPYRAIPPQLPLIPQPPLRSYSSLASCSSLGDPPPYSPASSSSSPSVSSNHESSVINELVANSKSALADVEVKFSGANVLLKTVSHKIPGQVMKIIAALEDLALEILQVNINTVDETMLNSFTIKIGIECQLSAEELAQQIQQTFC

O=C1C(c2ccccc2)=NC(NS(=O)(=O)c2ccccc2)(c2ccccc2)N1S(=O)(=O)c1ccccc1 (stereo not shown) [Stomidazolone]
effect on heterodimerization (in words) [1]: abolished
MI (%) meristemoid index ([2]; 20 uM): 2.39% and 0% and 2.612% and 2.336% and 2.778% and 1.339% and 0.4219% and 0.7905%
SI (%) stomatal index ([2]; 20 uM): 22.3108% and 29.661% and 27.2388% and 24.7664% and 32.1429% and 24.5536% and 35.443% and 19.7628%
MI (%) meristemoid index ([2]; 50 uM): 0% and 2.954% and 0.8658% and 1.852% and 0.4878% and 0.5208% and 2.991%
SI (%) stomatal index ([2]; 50 uM): 27.027% and 21.097% and 20.3463% and 25.9259% and 27.9412% and 25.8537% and 27.6042% and 20.9402%
MI (%) meristemoid index ([2]; 100 uM): 2.4% and 0.7812% and 3.364% and 2.326% and 0.4717% and 8.069% and 4.2623% and 3.509%
SI (%) stomatal index ([2]; 100 uM): 20.4% and 25% and 12.844% and 16.2791% and 24.0566% and 14.9856% and 17.377% and 15.4386%
effect on seedling growth ([2]; solid media, 100 μM (Supplementary Fig. 2d)): subtle growth retardation
effect on stomatal differentiation (in words) ([2]; solid media, 20, 50, 100 μM (Supplementary Fig. 2a-c)): inhibited stomatal differentiation in a dose-dependent manner
effect on seedling morphology / growth ([2]; solid media, 20 and 50 μM (Supplementary Fig. 2d)): does not impact; also recorded: does not affect growth
